System: Colo205 cells
Assay type: cell-based, human
Details: selinexor-treated nucleus vs MYXV + selinexor-treated nucleus

O=C(/C=C\n1cnc(-c2cc(C(F)(F)F)cc(C(F)(F)F)c2)n1)NNc1cnccn1 [selinexor]
Differential protein expression B2CWG0 m053R: 0.01
Differential protein expression B2CWG4 m057L: 0.01
Differential protein expression B2CWG5 m058R: 0.176
Differential protein expression B2CWG7 m060R: 0.01
Differential protein expression B2CWG8 m061R: 0.01
Differential protein expression B2CWH0: 0.069
Differential protein expression B2CWH1 m064R: 0.211
Differential protein expression B2CWH3 m066R: 0.01
Differential protein expression B2CWH6 m069L: 0.01
Differential protein expression B2CWH8: 0.232
Differential protein expression B2CWI0: 0.021
Differential protein expression B2CWI3 m076R: 0.096
Differential protein expression B2CWI4 m077L: 0.01
Differential protein expression B2CWI6 m079R: 0.131
Differential protein expression B2CWI7 m080R: 0.036
Differential protein expression B2CWJ3: 0.01
Differential protein expression B2CWJ5: 0.01
Differential protein expression B2CWJ9 m092L: 0.16
Differential protein expression B2CWK2 m095L: 0.029
Differential protein expression B2CWL4: 0.01
Differential protein expression B2CWL5 m108R: 0.088
Differential protein expression B2CWL8 m111R: 0.101
Differential protein expression B2CWM1: 0.083
Differential protein expression B2CWM2 m115L: 0.077
Differential protein expression B2CWP6 m139R: 0.04
Differential protein expression B2CWP9 m142R: 0.01
Differential protein expression B2CWQ5 m149R: 0.01
Differential protein expression B2CWQ7: 0.229
Differential protein expression B2CWR1 m156R: 0.022
Differential protein expression D2WM37 m012L: 0.058
Differential protein expression D2WMA0 m030L: 0.057
Differential protein expression D2WN05 m078R: 0.021
Differential protein expression D2WN26 m090L: 0.097
Differential protein expression D2WN93 m151R: 0.255
Differential protein expression D3W0C4 m130R: 0.01
Differential protein expression E2CZH7 m088L: 0.01
Differential protein expression E2CZJ6 m107L: 0.01
Differential protein expression E2CZJ9 m110L: 0.01
Differential protein expression E2CZK3 m114R: 0.083
Differential protein expression E2CZL2 m123R: 0.277
Differential protein expression E2CZL6 m127L: 0.025
Differential protein expression E2CZM0 m131R: 0.01
Differential protein expression E2CZM2 m133R: 0.048
Differential protein expression E2CZP2 m001R: 0.037
Differential protein expression E2CZQ3 m009L: 0.132
Differential protein expression E2CZQ9 m014L: 0.092
Differential protein expression E2CZR0 m015L: 0.04
Differential protein expression E2CZR6 m021L: 0.133
Differential protein expression E2CZV0 m055R: 0.052
Differential protein expression E2CZV1 m056R: 0.01
Differential protein expression E2CZV4 m059R: 0.01
Differential protein expression E2CZW3 m068R: 0.052
Differential protein expression E2CZW7 m072L: 0.211
Differential protein expression E2CZY1 m086L: 0.01
Differential protein expression K4JKC2 m073R: 0.021
Differential protein expression O00584 RNASET2: 0.01
Differential protein expression O10625 M-T1: 0.037
Differential protein expression O55698 M-T4: 0.122
Differential protein expression O76013 KRT36: 0.01
Differential protein expression O76015 KRT38: 0.01
Differential protein expression P01100 FOS: 0.211
Differential protein expression P05090 APOD: 0.01
Differential protein expression P07942 LAMB1: 0.128
Differential protein expression P10909 CLU: 0.01
Differential protein expression P14209 CD99: 0.01
Differential protein expression P17066 HSPA6: 0.01
Differential protein expression P17516 AKR1C4: 0.01
Differential protein expression P50583 NUDT2: 0.01
Differential protein expression P68544 PAPS: 0.044
Differential protein expression P68550: 0.168
Differential protein expression Q5BJH7 YIF1B: 0.161
Differential protein expression Q5VVJ2 MYSM1: 0.01
Differential protein expression Q6SJ93 FAM111B: 0.253
Differential protein expression Q8IY95 TMEM192: 0.01
Differential protein expression Q8TB72 PUM2: 0.01
Differential protein expression Q8TDQ7 GNPDA2: 0.01
Differential protein expression Q9P000 COMMD9: 0.213
Differential protein expression Q9PX24 m007L: 0.087
Differential protein expression Q9PX36 m006L: 0.035
Differential protein expression Q9PXA3 m004L: 0.122
Differential protein expression Q9Q8F0 m154L: 0.125
Differential protein expression Q9Q8F9 m144R: 0.179
Differential protein expression Q9Q8G2 m140R: 0.165
Differential protein expression Q9Q8G4 m137R: 0.01
Differential protein expression Q9Q8G6 m135R: 0.021
Differential protein expression Q9Q8H2 m129R: 0.119
Differential protein expression Q9Q8H9 m122R: 0.022
Differential protein expression Q9Q8I1 m120L: 0.024
Differential protein expression Q9Q8I4 m117L: 0.027
Differential protein expression Q9Q8I6 m114R: 0.083
Differential protein expression Q9Q8J1 m109L: 0.032
Differential protein expression Q9Q8J4 m106L: 0.01
Differential protein expression Q9Q8J5 m105L: 0.01
Differential protein expression Q9Q8J9 m101L: 0.01
Differential protein expression Q9Q8K1 m099L: 0.03
Differential protein expression Q9Q8K3 m097R: 0.01
Differential protein expression Q9Q8K6 m094R: 0.01
Differential protein expression Q9Q8K7 m093L: 0.039
Differential protein expression Q9Q8L1 m089L: 0.01
Differential protein expression Q9Q8L3 m087L: 0.069
Differential protein expression Q9Q8L8 m082R: 0.037
Differential protein expression Q9Q8L9 VETFS: 0.087
Differential protein expression Q9Q8M5 m075R: 0.01
Differential protein expression Q9Q8M6 m074R: 0.047
Differential protein expression Q9Q8M9 m071L: 0.232
Differential protein expression Q9Q8N0 m070R: 0.01
Differential protein expression Q9Q8N5: 0.069
Differential protein expression Q9Q8N8 m058R: 0.176
Differential protein expression Q9Q8P4 m052L: 0.029
Differential protein expression Q9Q8P7 m049R: 0.051
Differential protein expression Q9Q8Q1: 0.059
Differential protein expression Q9Q8Q3 m043L: 0.067
Differential protein expression Q9Q8Q6 m040L: 0.011
Differential protein expression Q9Q8Q8 m038L: 0.023
Differential protein expression Q9Q8R0 m036L: 0.099
Differential protein expression Q9Q8R4 m032R: 0.01
Differential protein expression Q9Q8R5 m031R: 0.011
Differential protein expression Q9Q8S0 m026R: 0.039
Differential protein expression Q9Q8S2 m020L: 0.191
Differential protein expression Q9Q8S8 m013L: 0.172
Differential protein expression Q9Q817 m113R: 0.037
Differential protein expression Q9UHX3 ADGRE2: 0.01
Differential protein expression Q9UJ68 MSRA: 0.202
Differential protein expression Q9YQ03 mt6: 0.031
Differential protein expression Q68DK2 ZFYVE26: 0.092
Differential protein expression Q77P93 m003.2L: 0.049
Differential protein expression Q77PB1 m003.1L: 0.145
Differential protein expression Q86WV6 STING1: 0.01
Differential protein expression Q96HD1 CRELD1: 0.01
Differential protein expression Q96LJ7 DHRS1: 0.01
Differential protein expression Q12913 PTPRJ: 0.01
Differential protein expression Q16204 CCDC6: 0.249
Differential protein expression Q58719 SFT2D3: 0.01
Differential protein expression Q83604 MF13: 0.058
Differential protein expression Q83730 m005R: 0.01
Differential protein expression Q85296: 0.124
Differential protein expression Q85297: 0.01
